The test system of one data set is MCF7/ADR. The data set can be described thus: In vitro growth inhibition (GI50), SRB assay. The conditions noted are these: MCF7/ADR tumor cell line, 3 days. The data set is classed as cell-based, human. The source says: (§1) The following cell lines were selected from the cell bank for screening and GI50 studies: MCF-7: human breast tumor, MCF-7/ADR: MCF-7 adriamycin resistant subline, HT-29: human colon carcinoma, A-549: human non-small cell lung cancer, NIH-3T3: mouse Swiss embryo fibroblast and WI-38: human lung fibroblast, SKMEL-28: human melanoma, Lewis Lung: mouse lung carcinoma, DU-145: prostate carcinoma, B16F10: mouse melanoma, L1210: murine lymphocytic leukemia, P-388: murine leukemia, U-937: human histolytic lymphoma. Except HT-29, WI-38, NIH-3T3 and Lewis Lung which were obtained from the American Type Culture Collection (Rockville, Md.) all the other cell lines were obtained from National Cancer Institute—Frederick Research Facility (Frederick, Md.). All the cell lines were grown in RPMI-1640 medium containing 10% fetal bovine serum (FBS) except WI-38 and DU-145 which were grown in EMEM+10% FBS at 37° C., 5% CO2 and 100% humidity and NIH-3T3, Lewis Lung, B16F10 and L1210 which were grown in DMEM containing 10% FBS (10% HS for L1210). All the adherent cell lines were detached from the culture flasks by addition of 2-3 ml of 0.05% trypsin-EDTA. Thereafter, trypsin was inactivated by addition of 10 mL of 10% serum-containing RPMI-1640 medium. Cells were separated into a single-cell suspension by gentle pipetting action. Depending on the cell type, […] to 10,000 cells were plated onto 96-well plates a day prior to the drug treatment, in a volume of 100 μl per well.
(§2) The test compounds were made in-house and the compounds were dissolved PBS or saline at a stock concentration of approximately 20 mM, which is 400 times the desired final maximum test concentration. The stock solutions were then diluted with complete medium to twice the desired final concentration. 100 μl aliquots of each dilution was then added to the designated wells. After 3 days of incubation, cell growth was determined.
(§3) The SRB assay was performed as described by Monks, A., Scudiero, D., Skehan, P., Shoemaker, R., Paull, K., Vistica, D., Hose, C., Langley, J., Cronise, P., and Vaigro-Wolff, A. Feasibility of a high-flux anticancer drug screen using a diverse panel of cultured human tumo-r cell lines. J Natl Cancer Inst, 83: 757-766, 1991 with minor modifications. Following drug treatment, cells were fixed with 50 μl of cold 50% (wt/vol) trichloroacetic acid (TCA) for 60 minutes at 4° C. The supernatant was discarded, and the plates were washed six times with deionized water and then air dried. The precipitate was stained with 100 μl SRB solution (0.4% wt/vol in 1% acetic acid) for 10 minutes at room temperature, and free SRB was removed by washing three times with 1% acetic acid, and the plates were then air dried. Bound SRB was solubilized with Tris buffer (10 mM), and the ODs were read using an automated plate reader (Bio-Rad, Model 3550-UV) at 490 nm. Background values were subtracted from the test data, and the data was calculated as a % of control. […] Percentage growth was calculated as described by, Peters, A. C., Ahmad, I., Janoff, A. S., Pushkareva, M. Y., and Mayhew, E. Growth Inhibitory effects of liposome-associated 1-o-octadecyl-2-o-methyl-sn-glycero-3-phosphocholine. Lipids, 32:1045-1054, 1997. The raw optical density data Was imported into an Excel spreadsheet to determine dose responses. […] By varying drug concentration,-dose response curves were generated and the GI-50 values were calculated. The GI50 values for each experiment were calculated using data obtained from three duplicate wells on two separate plates.
(§4) For growth inhibitory evaluation, we used five human tumor cell lines (U937; HT29; A549; MCF7; MCF7/ADR) and two normal fibroblast cell lines (NIH-3T3, murine; WI-38, human).

The test system of a further data set is MCF7. Put plainly: In vitro growth inhibition (GI50), SRB assay. The data set is classed as cell-based, human. The conditions noted are these: for GI50: MCF7 tumor cell line, 3 days; for effect on MCF7 growth compared to ET-18-OCH3 (in words): separate in-house study, Table 3.
Text: as §1, §2, §3, §4
On the technique in general: In SRB staining, fixed cells bind dye roughly in proportion to their protein.

The subject of a further data set is A549. The data set can be described thus: In vitro growth inhibition (GI50), SRB assay. It is filed as cell-based, human. The conditions noted are these: A549 tumor cell line, 3 days.
Text: as §1, §2, §3, §4

The test system of a further data set is HT29. Put plainly: In vitro growth inhibition (GI50), SRB assay. It is filed as cell-based, human. The conditions noted are these: HT29 tumor cell line, 3 days.
Text: as §1, §2, §3, §4

The subject of another data set is K-562. Put plainly: NCI growth inhibition screen, leukemia panel. It is filed as cell-based, human. Details: key to Performance as compared to ET-18-O—CH3: = means equivalent activity; + means that it appears to be significantly better (i.e., by ˜2x); < means it appears to be less active than ET18OCH3 (˜2x); a combination like =/+ or </+ means that activity is dependent upon the isomer; a combination like =/+ or </+ means that activity is dependent upon the isomer. The conditions noted are these: for Performance as compared to ET-18-O—CH3: K-562, Leukemia, from GI50s. The procedure: (§5) Candidates deemed suitable for in vivo testing were then synthesized in large scale quantities and some of this material was sent to the NCI's Developmental Therapeutics Program for a battery of growth inhibitory studies against various human tumor cell lines (60 cell lines, 9 different panels). The remainder of the material was used to assess in vivo efficacy using murine tumor models. Additionally, studies were conducted on the lead candidates to discern mechanism of action with particular emphasis on these agents apoptotic ability as measured by caspase 3 activity. The details (materials and methods) for these various assays are described further in the following discussion.
(§6) Ten compounds were also sent to NCI's Drug Discovery Program for screening against numerous human tumor cell lines (9 panels total: renal ovarian, colon, CNS, non-small cell lung, leukemia, breast, melanoma, and prostate). The data are shown in FIGS. 2a-i which also include data regarding D- and L-ET-18-OCH3 (listed as L-EL and D-EL in the figures). Upon examining the data, one is struck by how 1R and 1a′S standout in comparison to the other compounds, especially for the renal, ovarian, colon, and CNS panels.

The subject of a further data set is RPMI-8226. Put plainly: NCI growth inhibition screen, leukemia panel. The conditions noted are these: for Performance as compared to ET-18-O—CH3: RPMI-8226, Leukemia, from GI50s; for activity (in words): RPMI-8226 cell line, NCI screen. Further details: key to Performance as compared to ET-18-O—CH3: = means equivalent activity; + means that it appears to be significantly better (i.e., by ˜2x); < means it appears to be less active than ET18OCH3 (˜2x); a combination like =/+ or </+ means that activity is dependent upon the isomer; a combination like =/+ or </+ means that activity is dependent upon the isomer. It is filed as cell-based, human. The procedure: as §5, §6

Another data set has as its system WI38. The conditions noted are these: for GI50: WI38 normal human fibroblast cell line, 3 days.
Text: as §1, §2, §3, §4

Values joined by “and” are separate entries in the source; they are usually repeats but may differ in a detail not shown here. Equal values may be shown once. Read-outs that look alike come from different tables or passages of the source.

Broadly, the GI50 is the concentration at which growth is held to half of that of the control. With `CCCCCCCCCCCCCCCCCCOC[C@@H](COP(=O)([O-])OCC[N+](C)(C)C)OS(C)(=O)=O` [1a′S], the GI50 with MCF7/ADR was determined as 39 µM; in the data set on MCF7 it was 31.3 µM; in the data set on A549 it was 9.3 µM; in the data set on HT29, 2.6 µM; with WI38 it was 16.3 µM. Moreover, the “effect on MCF7 growth compared to ET-18-OCH3 (in words)” value in the data set on MCF7 is “appeared worse”. Moreover, the “Performance as compared to ET-18-O—CH3” value is reported as “=/+” with K-562 and “</+” with RPMI-8226. Besides, in the data set with RPMI-8226, the “activity (in words)” value is given as “poor activity”. Further, in the data set with WI38, the “cytotoxicity to normal human fibroblast as compared to ET-18-OCH3 (in words)” value was “less cytotoxic”.

For `CCCCCCCCCCCCCCCCCCOCC(COP(=O)([O-])OCC[N+](C)(C)C)OS(C)(=O)=O` (centres unmarked) [Compound 1aR], the 50% growth inhibitory concentration (GI50) in the data set with MCF7/ADR is above 40 µM; with MCF7, 24.3 µM and 26.4 µM; in the data set on A549, 6 µM and 6.6 µM; in the data set with HT29, 2.1 µM and 2.3 µM; in the data set with WI38, 40.9 µM. In addition, the “effect on MCF7 growth compared to ET-18-OCH3 (in words)” value in the data set on MCF7 is “appeared worse”. The “Performance as compared to ET-18-O—CH3” value in the data set on K-562 and in the data set on RPMI-8226 was “=/+” each time. In addition, the “cytotoxicity to normal human fibroblast as compared to ET-18-OCH3 (in words)” value with WI38 (WI-38) is “less cytotoxic”.

Turning to `CCCCCCCCCCCCCCCCCCOCC(COP(=O)([O-])OCC[N+](C)(C)C)OC` [D-ET18OCH3, 1-O-octadecyl-2-O-methyl-glycerophosphocholine, reference compound], the concentration for 50% growth inhibition (GI50) with MCF7/ADR was 25.1 µM; in the data set with MCF7, 14.6 µM; with A549, 8 µM; with HT29, 5.1 µM; in the data set with WI38, 10 to 13.5 µM. The “activity (in words)” value is listed as “extremely poor activity” in the data set with K-562 (K-562 cell line, NCI screen) and “extremely poor activity” in the data set on RPMI-8226.

These data come from patent US20060122153A1, “Antineoplastic ether lipid compounds with modifications at the sn-2 carbon” (priority 2003, published 2006).
